Test results from patent publication US9561249B2, “Pharmaceutical formulations of nitrite and uses thereof” (TheraVasc Inc., priority 2013, dated 2017).
Where two headings read alike, the source gives them in different places.

Tested on: subjects with PAD
Description: Supine vital signs were measured at the Screening Visit. The subject rested in a supine position for a minimum of 3 minutes prior to obtaining vital sign measurements. Vital signs included BP and pulse rate. Postural vital signs, including both supine and standing measurements of blood pressure and pulse rate, were recorded at all study visits following the first dose of IP administration. Measurements were performed as follows: (1) the subject rested in a supine position for a minimum of 3 minutes, (2) vital signs (BP and pulse rate) were measured while the subject was supine, (3) the subject assumed a standing position for a minimum of 5 minutes, and (4) vital signs (BP and pulse rate) were measured while the subject was standing.

[1] = 40-mg group, Screening (baseline)
[2] = 40-mg group, Visit 7 (Day 71, dose doubled)
[3] = 40-mg group, Visit 8 (6 days after dose doubling)
[4] = 80-mg group, Screening (baseline)
[5] = 80-mg group, Visit 7 (Day 71, dose doubled)
[6] = 80-mg group, Visit 8 (6 days after dose doubling)

O=NO [sodium nitrite]
Blood Pressure diastolic, Supine (Mean) [1]: 75.8
Blood Pressure systolic, Supine (Mean) [1]: 136.8
Pulse, Supine (Mean) [1]: 71.4
Blood Pressure diastolic, Standing (Mean) (40-mg group, Visit 1 (Day 0)): 73.1
Blood Pressure diastolic, Supine (Mean) (40-mg group, Visit 1 (Day 0)): 72.3
Blood Pressure systolic, Standing (Mean) (40-mg group, Visit 1 (Day 0)): 129.5
Blood Pressure systolic, Supine (Mean) (40-mg group, Visit 1 (Day 0)): 129.7
Diastolic BP, Orthostatic Changes (40-mg group, Visit 1 (Day 0)): 0.8
Pulse, Orthostatic Changes (40-mg group, Visit 1 (Day 0)): 1.8
Pulse, Standing (Mean) (40-mg group, Visit 1 (Day 0)): 75.8
Pulse, Supine (Mean) (40-mg group, Visit 1 (Day 0)): 74.1
Systolic BP, Orthostatic Changes (40-mg group, Visit 1 (Day 0)): −0.3
Blood Pressure diastolic, Standing (Mean) (40-mg group, Visit 2 (Day 1)): 72.6
Blood Pressure diastolic, Supine (Mean) (40-mg group, Visit 2 (Day 1)): 70.5
Blood Pressure systolic, Standing (Mean) (40-mg group, Visit 2 (Day 1)): 128.3
Blood Pressure systolic, Supine (Mean) (40-mg group, Visit 2 (Day 1)): 128.0
Diastolic BP, Orthostatic Changes (40-mg group, Visit 2 (Day 1)): 2.1
Pulse, Orthostatic Changes (40-mg group, Visit 2 (Day 1)): 4.5
Pulse, Standing (Mean) (40-mg group, Visit 2 (Day 1)): 78.6
Pulse, Supine (Mean) (40-mg group, Visit 2 (Day 1)): 74.1
Systolic BP, Orthostatic Changes (40-mg group, Visit 2 (Day 1)): 0.3
Blood Pressure diastolic, Standing (Mean) (40-mg group, Visit 3 (Day 4)): 73.1
Blood Pressure diastolic, Supine (Mean) (40-mg group, Visit 3 (Day 4)): 72.5
Blood Pressure systolic, Standing (Mean) (40-mg group, Visit 3 (Day 4)): 129.4
Blood Pressure systolic, Supine (Mean) (40-mg group, Visit 3 (Day 4)): 129.8
Diastolic BP, Orthostatic Changes (40-mg group, Visit 3 (Day 4)): 0.6
Pulse, Orthostatic Changes (40-mg group, Visit 3 (Day 4)): 2.0
Pulse, Standing (Mean) (40-mg group, Visit 3 (Day 4)): 76.7
Pulse, Supine (Mean) (40-mg group, Visit 3 (Day 4)): 74.7
Systolic BP, Orthostatic Changes (40-mg group, Visit 3 (Day 4)): −0.4
Blood Pressure diastolic, Standing (Mean) (40-mg group, Visit 4 (Day 14)): 71.0
Blood Pressure diastolic, Supine (Mean) (40-mg group, Visit 4 (Day 14)): 71.1
Blood Pressure systolic, Standing (Mean) (40-mg group, Visit 4 (Day 14)): 124.9
Blood Pressure systolic, Supine (Mean) (40-mg group, Visit 4 (Day 14)): 128.4
Diastolic BP, Orthostatic Changes (40-mg group, Visit 4 (Day 14)): −0.1
Pulse, Orthostatic Changes (40-mg group, Visit 4 (Day 14)): 3.9
Pulse, Standing (Mean) (40-mg group, Visit 4 (Day 14)): 75.6
Pulse, Supine (Mean) (40-mg group, Visit 4 (Day 14)): 71.7
Systolic BP, Orthostatic Changes (40-mg group, Visit 4 (Day 14)): −3.4
Blood Pressure diastolic, Standing (Mean) (40-mg group, Visit 5 (Day 28)): 71.6
Blood Pressure diastolic, Supine (Mean) (40-mg group, Visit 5 (Day 28)): 72.0
Blood Pressure systolic, Standing (Mean) (40-mg group, Visit 5 (Day 28)): 124.3
Blood Pressure systolic, Supine (Mean) (40-mg group, Visit 5 (Day 28)): 124.1
Diastolic BP, Orthostatic Changes (40-mg group, Visit 5 (Day 28)): −0.4
Pulse, Orthostatic Changes (40-mg group, Visit 5 (Day 28)): 3.8
Pulse, Standing (Mean) (40-mg group, Visit 5 (Day 28)): 76.6
Pulse, Supine (Mean) (40-mg group, Visit 5 (Day 28)): 72.7
Systolic BP, Orthostatic Changes (40-mg group, Visit 5 (Day 28)): 0.3
Blood Pressure diastolic, Standing (Mean) (40-mg group, Visit 6 (Day 70)): 73.2
Blood Pressure diastolic, Supine (Mean) (40-mg group, Visit 6 (Day 70)): 73.7
Blood Pressure systolic, Standing (Mean) (40-mg group, Visit 6 (Day 70)): 127.6
Blood Pressure systolic, Supine (Mean) (40-mg group, Visit 6 (Day 70)): 127.3
Diastolic BP, Orthostatic Changes (40-mg group, Visit 6 (Day 70)): −0.5
Pulse, Orthostatic Changes (40-mg group, Visit 6 (Day 70)): 3.5
Pulse, Standing (Mean) (40-mg group, Visit 6 (Day 70)): 73.9
Pulse, Supine (Mean) (40-mg group, Visit 6 (Day 70)): 7034
Systolic BP, Orthostatic Changes (40-mg group, Visit 6 (Day 70)): 0.3
Blood Pressure diastolic, Standing (Mean) [2]: 73.2
Blood Pressure diastolic, Supine (Mean) [2]: 71.3
Blood Pressure systolic, Standing (Mean) [2]: 122.2
Blood Pressure systolic, Supine (Mean) [2]: 126.7
Diastolic BP, Orthostatic Changes [2]: 1.9
Pulse, Orthostatic Changes [2]: 3.2
Pulse, Standing (Mean) [2]: 76.3
Pulse, Supine (Mean) [2]: 73.1
Systolic BP, Orthostatic Changes [2]: −4.5
Blood Pressure diastolic, Standing (Mean) [3]: 68.7
Blood Pressure diastolic, Supine (Mean) [3]: 72.2
Blood Pressure systolic, Standing (Mean) [3]: 123.1
Blood Pressure systolic, Supine (Mean) [3]: 130.0
Diastolic BP, Orthostatic Changes [3]: −3.5
Pulse, Orthostatic Changes [3]: 4.1
Pulse, Standing (Mean) [3]: 74.3
Pulse, Supine (Mean) [3]: 70.2
Systolic BP, Orthostatic Changes [3]: −6.9
Blood Pressure diastolic, Supine (Mean) [4]: 69.4
Blood Pressure systolic, Supine (Mean) [4]: 132.4
Pulse, Supine (Mean) [4]: 63.9
Blood Pressure diastolic, Standing (Mean) (80-mg group, Visit 1 (Day 0)): 70.2
Blood Pressure diastolic, Supine (Mean) (80-mg group, Visit 1 (Day 0)): 68.4
Blood Pressure systolic, Standing (Mean) (80-mg group, Visit 1 (Day 0)): 125.4
Blood Pressure systolic, Supine (Mean) (80-mg group, Visit 1 (Day 0)): 129.8
Diastolic BP, Orthostatic Changes (80-mg group, Visit 1 (Day 0)): 1.8
Pulse, Orthostatic Changes (80-mg group, Visit 1 (Day 0)): 6.9
Pulse, Standing (Mean) (80-mg group, Visit 1 (Day 0)): 72.6
Pulse, Supine (Mean) (80-mg group, Visit 1 (Day 0)): 65.6
Systolic BP, Orthostatic Changes (80-mg group, Visit 1 (Day 0)): −4.4
Blood Pressure diastolic, Standing (Mean) (80-mg group, Visit 2 (Day 1)): 71.9
Blood Pressure diastolic, Supine (Mean) (80-mg group, Visit 2 (Day 1)): 66.7
Blood Pressure systolic, Standing (Mean) (80-mg group, Visit 2 (Day 1)): 123.1
Blood Pressure systolic, Supine (Mean) (80-mg group, Visit 2 (Day 1)): 122.8
Diastolic BP, Orthostatic Changes (80-mg group, Visit 2 (Day 1)): 5.2
Pulse, Orthostatic Changes (80-mg group, Visit 2 (Day 1)): 7.3
Pulse, Standing (Mean) (80-mg group, Visit 2 (Day 1)): 72.3
Pulse, Supine (Mean) (80-mg group, Visit 2 (Day 1)): 65.1
Systolic BP, Orthostatic Changes (80-mg group, Visit 2 (Day 1)): 0.3
Blood Pressure diastolic, Standing (Mean) (80-mg group, Visit 3 (Day 4)): 69.2
Blood Pressure diastolic, Supine (Mean) (80-mg group, Visit 3 (Day 4)): 66.7
Blood Pressure systolic, Standing (Mean) (80-mg group, Visit 3 (Day 4)): 124.8
Blood Pressure systolic, Supine (Mean) (80-mg group, Visit 3 (Day 4)): 127.1
Diastolic BP, Orthostatic Changes (80-mg group, Visit 3 (Day 4)): 2.5
Pulse, Orthostatic Changes (80-mg group, Visit 3 (Day 4)): 6.2
Pulse, Standing (Mean) (80-mg group, Visit 3 (Day 4)): 72.9
Pulse, Supine (Mean) (80-mg group, Visit 3 (Day 4)): 66.7
Systolic BP, Orthostatic Changes (80-mg group, Visit 3 (Day 4)): −2.3
Blood Pressure diastolic, Standing (Mean) (80-mg group, Visit 4 (Day 14)): 68.8
Blood Pressure diastolic, Supine (Mean) (80-mg group, Visit 4 (Day 14)): 65.2
Blood Pressure systolic, Standing (Mean) (80-mg group, Visit 4 (Day 14)): 123.7
Blood Pressure systolic, Supine (Mean) (80-mg group, Visit 4 (Day 14)): 125.1
Diastolic BP, Orthostatic Changes (80-mg group, Visit 4 (Day 14)): 3.5
Pulse, Orthostatic Changes (80-mg group, Visit 4 (Day 14)): 7.9
Pulse, Standing (Mean) (80-mg group, Visit 4 (Day 14)): 72.6
Pulse, Supine (Mean) (80-mg group, Visit 4 (Day 14)): 64.6
Systolic BP, Orthostatic Changes (80-mg group, Visit 4 (Day 14)): −1.4
Blood Pressure diastolic, Standing (Mean) (80-mg group, Visit 5 (Day 28)): 71.9
Blood Pressure diastolic, Supine (Mean) (80-mg group, Visit 5 (Day 28)): 68.9
Blood Pressure systolic, Standing (Mean) (80-mg group, Visit 5 (Day 28)): 119.5
Blood Pressure systolic, Supine (Mean) (80-mg group, Visit 5 (Day 28)): 124.6
Diastolic BP, Orthostatic Changes (80-mg group, Visit 5 (Day 28)): 3.0
Pulse, Orthostatic Changes (80-mg group, Visit 5 (Day 28)): 3.8
Pulse, Standing (Mean) (80-mg group, Visit 5 (Day 28)): 72.5
Pulse, Supine (Mean) (80-mg group, Visit 5 (Day 28)): 68.7
Systolic BP, Orthostatic Changes (80-mg group, Visit 5 (Day 28)): −5.2
Blood Pressure diastolic, Standing (Mean) (80-mg group, Visit 6 (Day 70)): 70.0
Blood Pressure diastolic, Supine (Mean) (80-mg group, Visit 6 (Day 70)): 66.2
Blood Pressure systolic, Standing (Mean) (80-mg group, Visit 6 (Day 70)): 124.8
Blood Pressure systolic, Supine (Mean) (80-mg group, Visit 6 (Day 70)): 123.1
Diastolic BP, Orthostatic Changes (80-mg group, Visit 6 (Day 70)): 3.8
Pulse, Orthostatic Changes (80-mg group, Visit 6 (Day 70)): 2.1
Pulse, Standing (Mean) (80-mg group, Visit 6 (Day 70)): 67.6
Pulse, Supine (Mean) (80-mg group, Visit 6 (Day 70)): 65.5
Systolic BP, Orthostatic Changes (80-mg group, Visit 6 (Day 70)): 1.6
Blood Pressure diastolic, Standing (Mean) [5]: 67.1
Blood Pressure diastolic, Supine (Mean) [5]: 64.4
Blood Pressure systolic, Standing (Mean) [5]: 123.3
Blood Pressure systolic, Supine (Mean) [5]: 118.4
Diastolic BP, Orthostatic Changes [5]: 2.7
Pulse, Orthostatic Changes [5]: 6.1
Pulse, Standing (Mean) [5]: 70.4
Pulse, Supine (Mean) [5]: 64.3
Systolic BP, Orthostatic Changes [5]: 4.8
Blood Pressure diastolic, Standing (Mean) [6]: 67.9
Blood Pressure diastolic, Supine (Mean) [6]: 66.9
Blood Pressure systolic, Standing (Mean) [6]: 117.7
Blood Pressure systolic, Supine (Mean) [6]: 120.7
Diastolic BP, Orthostatic Changes [6]: 1.0
Pulse, Orthostatic Changes [6]: 4.3
Pulse, Standing (Mean) [6]: 72.6
Pulse, Supine (Mean) [6]: 68.3
Systolic BP, Orthostatic Changes [6]: −3.0
Hypotensive effects (treated groups, 40 and 80 mg BID): Dose dependent hypotensive affects were observed
